Test [1] deals with SV40-immortalized human corneal epithelial cells (HCE-T). In words: Influence of PPARγ antagonist on barrier function enhancing effect of PPARγ agonist (membrane electrical resistance). Format: cell-based. As to conditions: for Membrane electrical resistance: five days after seeding, average of four experiments, base culture 434.1. The procedure: An influence of the PPARγ antagonist was evaluated with respect to the barrier function enhancing effect of the PPARγ agonist, and it was examined whether or not the enhancing effect on the barrier function is based on the activity of the PPARγ agonist.
From RIKEN BioResource Center, SV40-immortalized human corneal epithelial cells (HCE-T) were obtained. On a culture insert of 24-well Transwell Clear (Corning Incorporated) were seeded 6.4×10^4 cells of HCE-T, and incubated at 37° C. in 5% CO2. As the culture medium, a DMEM/Ham's F12 (Nacalai Tesque, Inc.) containing 15% fetal bovine serum (ICN) and 40 μg/mL of gentamicin (Gibco) was used. The culture medium was removed after 9 hours, 2 days, 3 days and 4 days, and replaced with a culture medium containing the PPARγ agonist and the PPARγ antagonist to thereby obtain samples. As the PPARγ agonist, rivoglitazone [0.1 μM] was used, and as the PPARγ antagonist, 2-chloro-5-nitrobenzanilide (GW-9662) [0.03 μM, 0.1 μM] was used. The concentrations mentioned above were attained by dissolving each sample in DMSO and diluting 1,000-fold with the culture medium. In addition, a culture containing DMSO alone was used as a base culture medium.
Five days after the seeding, an electrical resistance of an epithelial cell layer was measured using a membrane electrical resistance measurement system (World Precision Instruments). A well containing the base medium alone with no corneal epithelial cell seeded was measured as a blank, and the value was subtracted from the electrical resistance of the epithelial cell layer. The resultant value was multiplied by an area of the cell culture (0.33 cm^2), to thereby obtaining an electrical resistance (Ω·cm^2) per unit area.

Test [2] has the same test system. The test can be described thus: Enhancing effect of PPARγ agonist on barrier function (membrane electrical resistance of corneal epithelial cell layer). As to conditions: for Membrane electrical resistance: five days after seeding, average of four experiments, base culture 296.0. Format: cell-based. The procedure:
The PPARγ agonist was evaluated with respect to the enhancing effect on the barrier function of a corneal epithelial cell. For the corneal epithelial cell, an SV40-immortalized human corneal epithelial cell line was used, utilizing a membrane electrical resistance as an index of the barrier function. When the bather function of the corneal epithelial cell is enhanced, the membrane electrical resistance increases, while the bather function is reduced, the membrane electrical resistance decreases.
From RIKEN BioResource Center, SV40-immortalized human corneal epithelial cells (HCE-T) were obtained. […] As the culture medium, a DMEM/Ham's F12 (Nacalai Tesque, Inc.) containing 15% fetal bovine serum (ICN) and 40 μg/mL of gentamicin (Gibco) was used. […] The concentration mentioned above was attained by dissolving each sample in DMSO and diluting 1,000-fold with the culture medium. In addition, a culture medium containing DMSO alone was used as a base culture medium.
Five days after the seeding, an electrical resistance of an epithelial cell layer was measured using a membrane electrical resistance measurement system (World Precision Instruments). A well containing the base medium alone with no corneal epithelial cell seeded was measured as a blank, and the value was subtracted from the electrical resistance of the epithelial cell layer. The resultant value was multiplied by an area of the cell culture (0.33 cm^2), to thereby obtain an electrical resistance (Ω·cm^2) per unit area.

SMILES strings stand for the structures. Like-named read-outs stand apart in the source and are kept apart here.

Take `O=C(Nc1ccccc1)c1cc([N+](=O)[O-])ccc1Cl` [GW-9662, 2-chloro-5-nitrobenzanilide]: the “antagonism of the barrier function enhanced by rivoglitazone (in words)” value is listed as “concentration-dependently reduced” in test [1] (GW-9662 0.03 μM and 0.1 μM with rivoglitazone 0.1 μM); “completely antagonized” in test [1] (GW-9662 at 0.1 μM with rivoglitazone 0.1 μM).

On to `COc1ccc2nc(COc3ccc(CC4SC(=O)NC4=O)cc3)n(C)c2c1` (centres unmarked) [Rivoglitazone, 5-[4-(6-methoxy-1-methyl-1H-benzimidazol-2-ylmethoxy)benzyl]thiazolidine-2,4-dione], for which the “barrier function enhancing effect (in words)” value in test [2] (sample 10 μM, HCE-T, compared with base culture medium) is recorded as “extremely strong barrier function enhancing effect”. For the same compound, the Membrane electrical resistance was 615.9 Ω · cm^2 in test [2] (sample 10 μM, HCE-T); 538.8 Ω · cm^2 in test [1] (rivoglitazone 0.1 μM alone); 473.5 Ω · cm^2 in test [1] (rivoglitazone 0.1 μM and GW-9662 0.03 μM); 429.3 Ω · cm^2 in test [1] (rivoglitazone 0.1 μM and GW-9662 0.1 μM).

Turning to `COc1ccc(OC(=O)N(CC(=O)O)Cc2ccc(OCCc3nc(-c4ccccc4)oc3C)cc2)cc1` [BMS-298585, N-[(4-methoxyphenoxy)carbonyl]-N-[[4-[2-(5-methyl-2-phenyl-4-oxazolyl)ethoxy]phenyl]methyl]glycine], the “barrier function enhancing effect (in words)” value in test [2] is listed as “excellent barrier function enhancing effect”.

In the case of `CN(CCOc1ccc(CC2SC(=O)NC2=O)cc1)c1ccccn1` (centres unmarked) [Rosiglitazone, 5-[p-[2-(methyl-2-pyridylamino)ethoxy]benzyl]-2,4-thiazolidinedione], the Membrane electrical resistance in test [2] (sample 10 μM, HCE-T) was 343.2 Ω · cm^2.

Regarding `CCc1ccc(CCOc2ccc(CC3SC(=O)NC3=O)cc2)nc1` (centres unmarked) [Pioglitazone, 5-[[4-[2-(5-ethyl-2-pyridinyl)ethoxy]phenyl]methyl]-2,4-thiazolidinedione], in test [2] (sample 10 μM, HCE-T), the Membrane electrical resistance is recorded as 350.3 Ω · cm^2.

`C/C(=C/C(=O)c1ccccc1)N[C@@H](Cc1ccc(OCCc2nc(-c3ccccc3)oc2C)cc1)C(=O)O` [GW-544, N-[1-methyl-3-oxo-3-phenyl-1(Z)-propenyl]-O-[2-(5-methyl-2-phenyloxazol-4-yl)ethyl]-L-tyrosine]: the “barrier function enhancing effect (in words)” value in test [2] is reported as “excellent barrier function enhancing effect”.

(Values after patent publication US20110092524A1, “Agent for Enhancing Corneal Epithelial Barrier Function” (SANTEN PHARMACEUTICAL CO., LTD., priority 2008, published 2011).)
